Reference: PubChem BioAssay (NCI)
Where “and” joins values, the source holds several entries; their conditions need not be identical. Equal entries are not always repeated.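 Values below derive from 48-hour exposures of cells grown in 96-well plates, with endpoints linearly interpolated between the two concentrations bracketing the appropriate inhibition level. The concentration for 50% growth inhibition is given as GI50. At the TGI there is no net growth.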

How the values were obtained:
Experiment in all cases: inhibition of tumour cell growth, NCI panel, 48 h
786-0 renal = system: 786-0 renal
COLO 205 colon = system: COLO 205 colon
MCF7 breast = system: MCF7 breast
MDA-MB-435 = system: MDA-MB-435
SN12C renal = system: SN12C renal
SNB-19 CNS = system: SNB-19 CNS
SR leukemia = system: SR leukemia
UO-31 renal = system: UO-31 renal
HL-60(TB) leukemia = system: HL-60(TB) leukemia
SK-OV-3 ovarian = system: SK-OV-3 ovarian

Row | SMILES | GI50 (786-0 renal) | TGI (786-0 renal) [µM] | GI50 (COLO 205 colon) | TGI (COLO 205 colon) | GI50 (MCF7 breast) | TGI (MCF7 breast) [µM] | GI50 (MDA-MB-435) | TGI (MDA-MB-435) [µM] | GI50 (SN12C renal) | TGI (SN12C renal) [µM] | GI50 (SNB-19 CNS) | TGI (SNB-19 CNS) [µM] | GI50 (SR leukemia) | TGI (SR leukemia) [µM] | GI50 (UO-31 renal) | TGI (UO-31 renal) | GI50 (HL-60(TB) leukemia) | TGI (HL-60(TB) leukemia) [µM] | GI50 (SK-OV-3 ovarian) | TGI (SK-OV-3 ovarian) [µM]
1 | Fc1cc2[nH]ncc2c2c3c(c(-c4cn[nH]c4C(F)(F)F)nc12)CCCC3 | 2000 nM | 7.16 | 1550 nM | 4.32 µM | 1180 nM | > 100 | 2390 nM | 12.1 | 1700 nM | 8.63 | 2.29 µM | 9.37 | 716 nM | 5.87 | 1560 nM | 6.02 µM |  |  |  | 
2 | CCSCC1CC(O)(c2ccccc2)CC(c2ccc(F)cc2)O1 (stereo not given) | 2020 nM | 4.53 | 1530 nM | 2.87 µM | 2790 nM | 8.98 | 2040 nM | 4.36 | 1740 nM | 3.17 | 2.63 µM | 9.36 |  |  | 1400 nM | 5.1 µM | 2190 nM | 4.56 | 2620 nM | 7.39
3 | O=S(=O)(NCCCNc1nccc(-c2c(-c3ccc(O)cc3)nc3sccn23)n1)c1ccc(F)cc1 | 3220 nM | > 100 | 52.7 nM | 2.19 µM | 2160 nM | 5.91 | 245 nM | 4.76 | 1840 nM | > 100 | 4.27 µM | > 100 | 2070 nM | > 100 | 2330 nM | 7.3 µM | 2610 nM | 5.61 | 2120 nM | 8.88
4 | COc1ccc(C2=N[C@@H](Cc3ccccc3)C(=O)Nc3ccsc32)cc1 | 10700 nM | 36.6 | 2490 nM | 5.03 µM | 3730 nM | 25.4 | 1520 nM | 4 | 8280 nM | 25.7 | 9.93 µM | 58.3 | 2630 nM | 11.7 | 8700 nM | 34.6 µM | 3910 nM | 19.3 | 4560 nM | 17.3
5 | Nc1nccc(-c2c(-c3ccc(F)cc3)ncn2C2CCNCC2)n1 | 16000 nM and 5590 nM | > 25 | 623 nM and 1010 nM | > 7.09 µM and 11.1 µM | 620 nM and 827 nM | > 17.2 | 2870 nM and 4170 nM | > 25 | 7710 nM and 2130 nM | > 25 | 6.91 µM and 3.96 µM | > 25 | 10200 nM and 2230 nM | > 25 | 10900 nM and 3040 nM | > 25 µM and 17.4 µM | > 25000 nM and 6470 nM | > 25 | 3340 nM and 5450 nM | > 25
6 | CC(C)(C)c1ccc(S(=O)(=O)Oc2ccc3c4c(c(=O)oc3c2)CCCCC4)cc1 | 25300 nM | > 100 | 14400 nM | > 100 µM | 18200 nM | > 100 | 34600 nM | > 100 | 29300 nM | > 100 | 16.4 µM | 52.1 |  |  | 12700 nM | 44 µM |  |  | 19700 nM | 52.2
7 | COc1ccc(/C=C(/C#N)C(N)=O)c(OC)c1 |  | > 100 |  | > 100 µM |  | > 100 |  | 48.5 |  | > 100 |  | > 100 |  | > 100 |  | 26.8 µM |  | > 100 |  | > 100
8 | CS(=O)(=O)Nc1cncc(-c2ccc3ncnc(Nc4ccc(F)c(Cl)c4)c3c2)c1 | 2700 nM | 14.8 | 1950 nM | 5.97 µM | 1490 nM | 8.77 | 3920 nM | 17 | 2600 nM | 15.2 | 2.09 µM | 18.1 | 1780 nM | 10.2 | 1760 nM | 13.8 µM | 2080 nM | 9.62 | 2090 nM | 6.54
9 | CCN1C(=S)N(c2ccccc2)C2NC(=S)N(/N=C/C=C/c3ccccc3OC)C21 (stereo not given) | 639 nM | > 100 | 435 nM | 2.16 µM | 331 nM | > 100 | 77.5 nM | 0.337 | 541 nM | > 100 | 0.496 µM | > 100 | 300 nM |  | 675 nM | > 100 µM | 245 nM | 0.6 | 647 nM | > 100
10 | Cc1cc(S(=O)(=O)Nc2nc3ccccc3o2)c(SCc2ccccc2)cc1Cl | 20800 nM | 47.2 | 22100 nM | 51.1 µM | 22400 nM | 78.3 | 19800 nM | 42.7 | 32100 nM | 90.1 | 21.6 µM | 67.8 | 11500 nM | > 100 | 32900 nM | > 100 µM | 36900 nM | > 100 | 34300 nM | > 100
11 | c1ccc2sc(SCCSc3nc4ccccc4s3)nc2c1 |  | > 100 |  |  |  | > 100 |  | > 100 |  | > 100 |  | > 100 |  | > 100 |  | > 100 µM |  | > 100 |  | > 100
12 | Cc1cc(O)c(=O)cc2c1C[C@H]1CC(C)(C)/C=C/C[C@]3(C)Oc4cc(=O)c(O)cc(C)c4C[C@H]3C[C@H](O)[C@@]1(C)O2 | 32.7 nM | 15.4 |  |  | < 10 nM | > 100 | < 17 nM |  | < 13.3 nM | > 29.2 | < 0.01 µM | > 67.3 | < 11.5 nM | 0.591 | 21.3 nM | 0.198 µM | 24.9 nM | 0.102 | 18.1 nM | 0.412
13 | CC(C)(Br)C(=O)N1CCN(C(c2ccccc2)c2ccccc2)CC1 |  | > 100 |  | > 100 µM |  | 81.8 |  | > 100 |  | > 100 |  | > 100 |  | > 100 |  | > 100 µM |  | 41.9 |  | > 100
14 | COc1ccc(C2CC(c3cccc(Nc4ccnc5cc(Cl)ccc45)c3)=NN2C=O)cc1 (stereo not given) | 665 nM | 30.8 | 484 nM | 2.95 µM | 361 nM | > 100 | 142 nM | 0.809 | 807 nM | > 100 | 0.902 µM | > 100 | 271 nM | 2.04 | 989 nM | > 100 µM | 257 nM | 0.774 | 795 nM | > 35.6
